{"source": "patent US20240246977A1", "about": "“DEGRADATION OF BRUTON'S TYROSINE KINASE (BTK) BY CONJUGATION OF BTK INHIBITORS WITH E3 LIGASE LIGAND AND METHOD OF USE” (BeiGene Switzerland GmbH, priority 2021, published 2024)", "key": {"BTK": {"biological_target": "BTK (Homo sapiens, UniProt Q06187)", "sequence (Q06187 whole entry)": "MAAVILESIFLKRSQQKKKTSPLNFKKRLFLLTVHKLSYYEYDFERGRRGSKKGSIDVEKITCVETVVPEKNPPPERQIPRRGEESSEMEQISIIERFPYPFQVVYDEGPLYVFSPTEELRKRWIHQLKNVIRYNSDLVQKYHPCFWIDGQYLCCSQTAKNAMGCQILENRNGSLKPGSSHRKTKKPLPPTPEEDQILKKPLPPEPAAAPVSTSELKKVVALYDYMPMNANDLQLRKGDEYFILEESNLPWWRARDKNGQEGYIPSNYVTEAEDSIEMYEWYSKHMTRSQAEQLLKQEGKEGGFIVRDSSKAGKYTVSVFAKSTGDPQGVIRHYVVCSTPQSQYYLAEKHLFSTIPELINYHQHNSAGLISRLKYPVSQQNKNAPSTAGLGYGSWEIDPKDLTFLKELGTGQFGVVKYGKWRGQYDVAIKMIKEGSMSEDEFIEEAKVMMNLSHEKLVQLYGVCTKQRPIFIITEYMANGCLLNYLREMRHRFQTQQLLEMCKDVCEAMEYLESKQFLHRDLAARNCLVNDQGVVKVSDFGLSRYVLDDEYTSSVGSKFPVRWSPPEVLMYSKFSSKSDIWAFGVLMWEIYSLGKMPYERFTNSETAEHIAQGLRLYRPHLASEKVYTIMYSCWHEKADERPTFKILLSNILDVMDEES", "test": "BTK cell degradation in TMD-8 cells, HTRF assay", "format": "cell-based", "set-up": "endogenous in cells; host or cells: TMD-8 cells", "settings": "6 h treatment, IC50 (DC50) of BTK degradation", "outline": "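TMD-8 cells treated 6 h with 8-dose series (6-fold dilutions, 0.2% DMSO final), then lysed and BTK quantified by HTRF (337/665/620 nm) after overnight antibody incubation at room temperature. Degradation normalized to DMSO high and low controls; DC50 and Dmax from four-parameter fit.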"}, "HEK-293 cells": {"test_system": "HEK-293 cells", "test": "HEK-293 cytotoxicity detection (CellTiter-Glo)", "format": "cell-based", "settings": "Homo sapiens, 72 h, 72 h incubation, CellTiter-Glo luminescence, read-out: HEK293", "outline": "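HEK-293 cells exposed 72 h to 8 compounds doses (4-fold dilutions, top stock 5 mM at 500×) in 0.2% DMSO. Viability by CellTiter-Glo luminescence; inhibition normalised to DMSO high control and low control, IC50 from four-parameter curve fit.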"}}, "data": [{"smiles": "Cc1cccc(NC(=O)c2ccc(-c3nn4c(c3C(N)=O)Nc3ccc(N5CCN(CC6CCN(c7ccc(N8CCC(=O)N(COC(=O)C(C)(C)C)C8=O)cc7)CC6)CC5)cc3CC4)c(F)c2C)n1", "note": "[Example B78, (3-(4-(4-((4-(3-carbamoyl-2-(2-fluoro-3-methyl-4-((6-methylpyridin-2-yl)carbamoyl)phenyl)-9,10-dihydro-4H-benzo[d]pyrazolo[1,5-a][1,3]diazepin-7-yl)piperazin-1-yl)methyl)piperidin-1-yl)phenyl)-2,6-dioxotetrahydropyrimidin-1(2H)-yl)methyl pivalate]", "values": [{"measurement": "DC50", "setting": "BTK", "value": 6.27, "unit": "nM"}, {"measurement": "IC50", "setting": "HEK-293 cells", "value": "> 10000", "unit": "nM"}]}, {"smiles": "COc1ccc(C(=O)NCc2ccc(-c3nn4c(c3C(N)=O)Nc3ccc(N5CCN(CC6CCN(c7ccc(N8CCC(=O)NC8=O)cc7)CC6)CC5)cc3CC4)cc2)c(OC)c1", "note": "[Example C23, 2-(4-((2,4-dimethoxybenzamido)methyl)phenyl)-7-(4-((1-(4-(2,4-dioxotetrahydropyrimidin-1(2H)-yl)phenyl)piperidin-4-yl)methyl)piperazin-1-yl)-9,10-dihydro-4H-benzo[d]pyrazolo[1,5-a][1,3]diazepine-3-carboxamide]", "values": [{"measurement": "DC50", "setting": "BTK", "value": 2, "unit": "nM"}, {"measurement": "IC50", "setting": "HEK-293 cells", "value": "> 10000", "unit": "nM"}]}, {"smiles": "COc1ccc(C(F)(F)F)cc1C(=O)NCc1ccc(-c2nn3c(c2C(N)=O)Nc2ccc(N4CCN(CC5CCN(c6ccc(N7CCC(=O)NC7=O)cc6)CC5)CC4)cc2CC3)cc1C", "note": "[Example C11, 7-(4-((1-(4-(2,4-dioxotetrahydropyrimidin-1(2H)-yl)phenyl)piperidin-4-yl)methyl)piperazin-1-yl)-2-(4-((2-methoxy-5-(trifluoromethyl)benzamido)methyl)-3-methylphenyl)-9,10-dihydro-4H-benzo[d]pyrazolo[1,5-a][1,3]diazepine-3-carboxamide]", "values": [{"measurement": "DC50", "setting": "BTK", "value": 3.36, "unit": "nM"}, {"measurement": "IC50", "setting": "HEK-293 cells", "value": "> 10000", "unit": "nM"}]}, {"smiles": "NC(=O)c1c(-c2ccc(Oc3ccccc3)cc2)nn2c1Nc1ccc(C(=O)N3CCN(CC4CCN(c5ccc6c(c5)C(=O)N(C5CCC(=O)NC5=O)C6=O)CC4)CC3)cc1CC2", "note": "(stereo not shown) [Example A13, 7-(4-((1-(2-(2,6-dioxopiperidin-3-yl)-1,3-dioxoisoindolin-5-yl)piperidin-4-yl)methyl)piperazine-1-carbonyl)-2-(4-phenoxyphenyl)-9,10-dihydro-4H-benzo[d]pyrazolo[1,5-a][1,3]diazepine-3-carboxamide]", "values": [{"measurement": "DC50", "setting": "BTK", "value": 2.79, "unit": "nM"}, {"measurement": "IC50", "setting": "HEK-293 cells", "value": 167, "unit": "nM"}]}, {"smiles": "COc1cc(C(=O)Nc2cccc(C)n2)ccc1-c1nn2c(c1C(N)=O)Nc1ccc(N3CCN(CC4CCN(c5ccc(N6CCC(=O)NC6=O)cc5)CC4)CC3)cc1CC2", "note": "[Example B22, 7-(4-((1-(4-(2,4-dioxotetrahydropyrimidin-1(2H)-yl)phenyl)piperidin-4-yl)methyl)piperazin-1-yl)-2-(2-methoxy-4-((6-methylpyridin-2-yl)carbamoyl)phenyl)-9,10-dihydro-4H-benzo[d]pyrazolo[1,5-a][1,3]diazepine-3-carboxamide]", "values": [{"measurement": "DC50", "setting": "BTK", "value": 0.338, "unit": "nM"}, {"measurement": "IC50", "setting": "HEK-293 cells", "value": "> 10000", "unit": "nM"}]}, {"smiles": "Cc1cccc(NC(=O)c2cnc(-c3nn4c(c3C(N)=O)Nc3ccc(N5CCN(CCc6cc(F)c(C7CCC(=O)NC7=O)c(F)c6)CC5)cc3CC4)cc2C)n1", "note": "(stereo not shown) [Example B37, 7-(4-(4-(2,6-dioxopiperidin-3-yl)-3,5-difluorophenethyl)piperazin-1-yl)-2-(4-methyl-5-((6-methylpyridin-2-yl)carbamoyl)pyridin-2-yl)-9,10-dihydro-4H-benzo[d]pyrazolo[1,5-a][1,3]diazepine-3-carboxamide]", "values": [{"measurement": "DC50", "setting": "BTK", "value": 15.2, "unit": "nM"}, {"measurement": "IC50", "setting": "HEK-293 cells", "value": "> 10000", "unit": "nM"}]}, {"smiles": "Cc1cc(C(F)(F)F)cc(NC(=O)c2ccc(-c3nn4c(c3C(N)=O)Nc3ccc(N5CCN(CC6CCN(c7ccc(N8CCC(=O)NC8=O)cc7)CC6)CC5)cc3CC4)c(F)c2C)n1", "note": "[Example B29, 7-(4-((1-(4-(2,4-dioxotetrahydropyrimidin-1(2H)-yl)phenyl)piperidin-4-yl)methyl)piperazin-1-yl)-2-(2-fluoro-3-methyl-4-((6-methyl-4-(trifluoromethyl)pyridin-2-yl)carbamoyl)phenyl)-9,10-dihydro-4H-benzo[d]pyrazolo[1,5-a][1,3]diazepine-3-carboxamide]", "values": [{"measurement": "DC50", "setting": "BTK", "value": 2.44, "unit": "nM"}, {"measurement": "IC50", "setting": "HEK-293 cells", "value": "> 10000", "unit": "nM"}]}, {"smiles": "Cc1cccc(NC(=O)c2ccc(-c3nn4c(c3C(N)=O)Nc3ccc(N5CCN(CC6CN(c7ccc(N8CCC(=O)NC8=O)cc7)C6)CC5)cc3CC4)c(F)c2C)n1", "note": "[Example B59, 7-(4-((1-(4-(2,4-dioxotetrahydropyrimidin-1(2H)-yl)phenyl)azetidin-3-yl)methyl)piperazin-1-yl)-2-(2-fluoro-3-methyl-4-((6-methylpyridin-2-yl)carbamoyl)phenyl)-9,10-dihydro-4H-benzo[d]pyrazolo[1,5-a][1,3]diazepine-3-carboxamide]", "values": [{"measurement": "DC50", "setting": "BTK", "value": 1.47, "unit": "nM"}, {"measurement": "IC50", "setting": "HEK-293 cells", "value": "> 10000", "unit": "nM"}]}, {"smiles": "Cc1ccnc(NC(=O)c2ccc(-c3nn4c(c3C(N)=O)Nc3ccc(N5CCN(CC6CCN(c7ccc(N8CCC(=O)NC8=O)cc7)CC6)CC5)cc3CC4)cc2)c1", "note": "[Example B10, 7-(4-((1-(4-(2,4-dioxotetrahydropyrimidin-1(2H)-yl)phenyl)piperidin-4-yl)methyl)piperazin-1-yl)-2-(4-((4-methylpyridin-2-yl)carbamoyl)phenyl)-9,10-dihydro-4H-benzo[d]pyrazolo[1,5-a][1,3]diazepine-3-carboxamide]", "values": [{"measurement": "DC50", "setting": "BTK", "value": 4.69, "unit": "nM"}, {"measurement": "IC50", "setting": "HEK-293 cells", "value": "> 10000", "unit": "nM"}]}, {"smiles": "NC(=O)c1c(-c2ccc(C(=O)Nc3cc(C(F)(F)F)ccn3)cc2F)nn2c1Nc1ccc(N3CCN(CC4CCN(c5ccc(N6CCC(=O)NC6=O)cc5)CC4)CC3)cc1CC2", "note": "[Example B2, 7-(4-((1-(4-(2,4-dioxotetrahydropyrimidin-1(2H)-yl)phenyl)piperidin-4-yl)methyl)piperazin-1-yl)-2-(2-fluoro-4-((4-(trifluoromethyl)pyridin-2-yl)carbamoyl)phenyl)-9,10-dihydro-4H-benzo[d]pyrazolo[1,5-a][1,3]diazepine-3-carboxamide]", "values": [{"measurement": "DC50", "setting": "BTK", "value": 0.842, "unit": "nM"}, {"measurement": "IC50", "setting": "HEK-293 cells", "value": "> 10000", "unit": "nM"}]}, {"smiles": "Cc1cccc(NC(=O)c2ccc(-c3nn4c(c3C(N)=O)Nc3ccc(N5CCN(C6CN(C7CN(c8ccc9c(c8)C(=O)N(C8CCC(=O)NC8=O)C9=O)C7)C6)CC5)cc3CC4)c(F)c2C)n1", "note": "(stereo not shown) [Example B57, 7-(4-(1′-(2-(2,6-dioxopiperidin-3-yl)-1,3-dioxoisoindolin-5-yl)-[1,3′-biazetidin]-3-yl)piperazin-1-yl)-2-(2-fluoro-3-methyl-4-((6-methylpyridin-2-yl)carbamoyl)phenyl)-9,10-dihydro-4H-benzo[d]pyrazolo[1,5-a][1,3]diazepine-3-carboxamide]", "values": [{"measurement": "DC50", "setting": "BTK", "value": 0.526, "unit": "nM"}, {"measurement": "IC50", "setting": "HEK-293 cells", "value": "> 10000", "unit": "nM"}]}, {"smiles": "NC(=O)c1c(-c2ccc(Oc3ccccc3)cc2)nn2c1Nc1cc(C(=O)N3CCC(CN4CCN(c5cc6c(cc5F)C(=O)N(C5CCC(=O)NC5=O)C6=O)CC4)CC3)ccc1CC2", "note": "(stereo not shown) [Example A20, 6-(4-((4-(2-(2,6-dioxopiperidin-3-yl)-6-fluoro-1,3-dioxoisoindolin-5-yl)piperazin-1-yl)methyl)piperidine-1-carbonyl)-2-(4-phenoxyphenyl)-9,10-dihydro-4H-benzo[d]pyrazolo[1,5-a][1,3]diazepine-3-carboxamide]", "values": [{"measurement": "DC50", "setting": "BTK", "value": 13.4, "unit": "nM"}, {"measurement": "IC50", "setting": "HEK-293 cells", "value": "> 10000", "unit": "nM"}]}, {"smiles": "NC(=O)c1c(-c2ccc(Oc3ccccc3)cc2)nn2c1Nc1ccc(NC3CCN(c4ccc5c(c4)C(=O)N(C4CCC(=O)NC4=O)C5=O)CC3)cc1CC2", "note": "(stereo not shown) [Example A8, 7-((1-(2-(2,6-dioxopiperidin-3-yl)-1,3-dioxoisoindolin-5-yl)piperidin-4-yl)amino)-2-(4-phenoxyphenyl)-9,10-dihydro-4H-benzo[d]pyrazolo[1,5-a][1,3]diazepine-3-carboxamide]", "values": [{"measurement": "DC50", "setting": "BTK", "value": 2.97, "unit": "nM"}, {"measurement": "IC50", "setting": "HEK-293 cells", "value": 280, "unit": "nM"}]}, {"smiles": "Cc1c(C(=O)Nc2cscn2)ccc(-c2nn3c(c2C(N)=O)Nc2ccc(N4CCN(CC5CN(c6ccc(N7CCC(=O)NC7=O)cc6)C5)CC4)cc2CC3)c1F", "note": "[Example B97, 7-(4-((1-(4-(2,4-dioxotetrahydropyrimidin-1(2H)-yl)phenyl)azetidin-3-yl)methyl)piperazin-1-yl)-2-(2-fluoro-3-methyl-4-(thiazol-4-ylcarbamoyl)phenyl)-9,10-dihydro-4H-benzo[d]pyrazolo[1,5-a][1,3]diazepine-3-carboxamide]", "values": [{"measurement": "DC50", "setting": "BTK", "value": 2.11, "unit": "nM"}, {"measurement": "IC50", "setting": "HEK-293 cells", "value": "> 10000", "unit": "nM"}]}, {"smiles": "Cc1c(C(=O)Nc2cscn2)ccc(-c2nn3c(c2C(N)=O)Nc2ccc(N4CCN(C5CC(c6ccc(N[C@H]7CCC(=O)NC7=O)cc6)C5)CC4)cc2CC3)c1F", "note": "(stereo partly drawn) [Example B101, (S)-7-(4-(3-(4-((2,6-dioxopiperidin-3-yl)amino)phenyl)cyclobutyl)piperazin-1-yl)-2-(2-fluoro-3-methyl-4-(thiazol-4-ylcarbamoyl)phenyl)-9,10-dihydro-4H-benzo[d]pyrazolo[1,5-a][1,3]diazepine-3-carboxamide]", "values": [{"measurement": "DC50", "setting": "BTK", "value": 2.42, "unit": "nM"}, {"measurement": "IC50", "setting": "HEK-293 cells", "value": 32.3, "unit": "nM"}]}, {"smiles": "COc1ccccc1C(=O)NCc1ccc(-c2nn3c(c2C(N)=O)Nc2ccc(N4CCN(CC5CCN(c6ccc(N7CCC(=O)NC7=O)cc6)CC5)CC4)cc2CC3)cc1C(F)(F)F", "note": "[Example C45, 7-(4-((1-(4-(2,4-dioxotetrahydropyrimidin-1(2H)-yl)phenyl)piperidin-4-yl)methyl)piperazin-1-yl)-2-(4-((2-methoxybenzamido)methyl)-3-(trifluoromethyl)phenyl)-9,10-dihydro-4H-benzo[d]pyrazolo[1,5-a][1,3]diazepine-3-carboxamide]", "values": [{"measurement": "DC50", "setting": "BTK", "value": 56.4, "unit": "nM"}, {"measurement": "IC50", "setting": "HEK-293 cells", "value": "> 10000", "unit": "nM"}]}, {"smiles": "Cc1cc(C)nc(NC(=O)c2ccc(-c3nn4c(c3C(N)=O)Nc3ccc(N5CCN(CC6CCN(c7ccc(N8CCC(=O)NC8=O)cc7)CC6)CC5)cc3CC4)cc2C)c1", "note": "[Example B23, 2-(4-((4,6-dimethylpyridin-2-yl)carbamoyl)-3-methylphenyl)-7-(4-((1-(4-(2,4-dioxotetrahydropyrimidin-1(2H1)-yl)phenyl)piperidin-4-yl)methyl)piperazin-1-yl)-9,10-dihydro-4H-benzo[d]pyrazolo[1,5a][1,3]diazepine-3-carboxamide]", "values": [{"measurement": "DC50", "setting": "BTK", "value": 0.594, "unit": "nM"}, {"measurement": "IC50", "setting": "HEK-293 cells", "value": "> 10000", "unit": "nM"}]}]}
